# Target: T1, human PAH with the R408W mutation (Homo sapiens, UniProt P00439, R408W)
# T1 construct: expressed in transfected cells
# T1 sequence (P00439 1-452 R408W): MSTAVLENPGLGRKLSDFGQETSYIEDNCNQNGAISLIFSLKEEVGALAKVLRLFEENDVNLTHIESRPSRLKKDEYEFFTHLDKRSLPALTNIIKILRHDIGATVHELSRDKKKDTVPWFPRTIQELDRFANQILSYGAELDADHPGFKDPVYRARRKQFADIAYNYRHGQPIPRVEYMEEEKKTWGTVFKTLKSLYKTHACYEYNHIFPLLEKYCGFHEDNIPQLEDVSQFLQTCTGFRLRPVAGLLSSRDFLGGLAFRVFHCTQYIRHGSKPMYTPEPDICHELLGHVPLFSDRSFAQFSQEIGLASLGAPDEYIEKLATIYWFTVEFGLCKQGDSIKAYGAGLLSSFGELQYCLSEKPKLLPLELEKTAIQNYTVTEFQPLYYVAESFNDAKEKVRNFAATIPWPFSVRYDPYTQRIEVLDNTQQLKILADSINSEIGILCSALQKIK
# Assay: Cell Based Phenylalanine Flux Assay
# Parameters: scale not given here
# Conditions: A375 cells expressing human R408W PAH; 24 hrs compound incubation; 13C-Tyrosine by LC-MS; average where tested multiple times; read-out: AC50
row,AC50 [µM],Molecule
1,1 to 5,"Cn1nc(C(F)(F)F)cc1C(=O)N1CCc2[nH]cnc2[C@H]1c1nc2c(F)cccc2s1 [Example 1787, (S)-(4-(4-fluorobenzo[d]thiazol-2-yl)-6,7-dihydro-1H-imidazo[4,5-c]pyridin-5(4H)-yl)(1-methyl-3-(trifluoromethyl)-1H-pyrazol-5-yl)methanone]"
2,< 0.5,"O=C(c1ocnc1C(F)(F)F)N1CCc2[nH]cnc2[C@@H]1c1nc2c(F)cccc2s1 [Example 1494, (R)-(4-(4-fluorobenzo[d]thiazol-2-yl)-6,7-dihydro-1H-imidazo[4,5-c]pyridin-5(4H)-yl)(4-(trifluoromethyl)oxazol-5-yl)methanone]"
3,> 5,"Cc1nnc(CCC(=O)N2CCc3[nH]cnc3[C@@H]2c2nc3ccccc3s2)s1 [Example 1020, (R)-1-(4-(benzo[d]thiazol-2-yl)-6,7-dihydro-1H-imidazo[4,5-c]pyridin-5(4H)-yl)-3-(5-methyl-1,3,4-thiadiazol-2-yl)propan-1-one]"
4,1 to 5,"O=C(c1nnc(-c2ccc(C(F)(F)F)cn2)o1)N1CCc2[nH]cnc2[C@@H]1c1nc2c(F)cccc2s1 [Example 1847, (R)-(4-(4-fluorobenzo[d]thiazol-2-yl)-6,7-dihydro-1H-imidazo[4,5-c]pyridin-5(4H)-yl)(5-(5-(trifluoromethyl)pyridin-2-yl)-1,3,4-oxadiazol-2-yl)methanone]"
5,< 0.5,"CC(C)(O)c1nc(C(F)(F)F)c(C(=O)N2CCc3[nH]cnc3[C@@H]2c2nc3ccccc3s2)o1 [Example 1554, (R)-(4-(benzo[d]thiazol-2-yl)-6,7-dihydro-1H-imidazo[4,5-c]pyridin-5(4H)-yl)(2-(2-hydroxypropan-2-yl)-4-(trifluoromethyl)oxazol-5-yl)methanone]"
6,> 5,"O=C(N1CCc2[nH]cnc2[C@@H]1c1nc2ccccc2s1)C(F)(F)C1CC1 [Example 1254, (R)-1-(4-(benzo[d]thiazol-2-yl)-6,7-dihydro-1H-imidazo[4,5-c]pyridin-5(4H)-yl)-2-cyclopropyl-2,2-difluoroethanone]"
7,1 to 5,"((4R)-4-(benzo[d]thiazol-2-yl)-3a,4,6,7,8,8a-hexahydroimidazo[4,5-c]azepin-5(1H)-yl)(4-cyclopropyloxazol-5-yl)methanone [Example 2168]"
8,1 to 5,"O=C(c1nnc(-c2ccccn2)o1)N1CCc2[nH]cnc2[C@@H]1c1nc2ccccc2s1 [Example 1440, (R)-(4-(benzo[d]thiazol-2-yl)-6,7-dihydro-1H-imidazo[4,5-c]pyridin-5(4H)-yl)(5-(pyridin-2-yl)-1,3,4-oxadiazol-2-yl)methanone]"
9,0.5 to 1,O=C(c1ccns1)N1CCc2[nH]cnc2[C@H]1c1nc2ccccc2s1 [Example 1051]
10,1 to 5,"O=C(c1nnc(N2CCC(F)CC2)o1)N1CCc2[nH]cnc2[C@@H]1c1nc2ccccc2s1 [Example 1592, (R)-(4-(benzo[d]thiazol-2-yl)-6,7-dihydro-1H-imidazo[4,5-c]pyridin-5(4H)-yl)(5-(4-fluoropiperidin-1-yl)-1,3,4-oxadiazol-2-yl)methanone]"
11,1 to 5,Cc1nc(CCN(C)C)oc1C(=O)N1CCc2[nH]cnc2[C@H]1c1nc2ccccc2s1 [Example 1659]
12,1 to 5,"CC(C)(O)Cc1nc(C(F)F)c(C(=O)N2CCc3[nH]cnc3[C@@H]2c2nc3c(F)cccc3s2)o1 [Example 2062, (R)-(4-(difluoromethyl)-2-(2-hydroxy-2-methylpropyl)oxazol-5-yl)(4-(4-fluorobenzo[d]thiazol-2-yl)-6,7-dihydro-1H-imidazo[4,5-c]pyridin-5(4H)-yl)methanone]"
13,1 to 5,"N#Cc1ncoc1C(=O)N1CC2(CC2)c2[nH]cnc2[C@H]1c1nc2ccccc2s1 [Example 1664, (S)-5-(4′-(benzo[d]thiazol-2-yl)-1′,4′,5′,6′-tetrahydrospiro[cyclopropane-1,7′-imidazo[4,5-c]pyridin]-5′-ylcarbonyl)oxazole-4-carbonitrile]"
14,1 to 5,"Cn1nc(Br)nc1C(=O)N1CCc2[nH]cnc2[C@@H]1c1nc2ccccc2s1 [Example 1978, (R)-(4-(benzo[d]thiazol-2-yl)-6,7-dihydro-1H-imidazo[4,5-c]pyridin-5(4H)-yl)(3-bromo-1-methyl-1H-1,2,4-triazol-5-yl)methanone]"
15,< 0.5,"Cn1cc(-c2nnc(C(=O)N3CCc4[nH]cnc4[C@H]3c3nc4c(F)cccc4s3)o2)cn1 [Example 1728, (S)-(4-(4-fluorobenzo[d]thiazol-2-yl)-6,7-dihydro-1H-imidazo[4,5-c]pyridin-5(4H)-yl)(5-(1-methyl-1H-pyrazol-4-yl)-1,3,4-oxadiazol-2-yl)methanone]"
16,0.5 to 1,"O=C(c1cnn2ccc(F)cc12)N1CCc2[nH]cnc2[C@H]1c1nc2c(F)cccc2s1 [Example 1170, (S)-(4-(4-fluorobenzo[d]thiazol-2-yl)-6,7-dihydro-1H-imidazo[4,5-c]pyridin-5(4H)-yl)(5-fluoropyrazolo[1,5-a]pyridin-3-yl)methanone]"
17,< 0.5,"Cc1cccc2sc([C@@H]3c4nc[nH]c4CCN3C(=O)c3ocnc3C(F)(F)F)nc12 [Example 2009, (S)-(4-(4-methylbenzo[d]thiazol-2-yl)-6,7-dihydro-1H-imidazo[4,5-c]pyridin-5(4H)-yl)(4-(trifluoromethyl)oxazol-5-yl)methanone]"

# Same assay, conditions: A375 cells expressing human R408W PAH; 24 hrs with compound; 13C-Tyrosine by LC-MS; average where tested multiple times
row,AC50,Molecule
1,"E, E","Cn1cc(-c2nc(C(F)(F)F)c(C(=O)N3CCc4[nH]cnc4[C@@H]3c3nc4ccccc4s3)o2)cn1 (single isomer, unassigned)"

# Same assay, conditions: A375 cells expressing human R408W PAH; 24 hrs with compound; 13C-Tyrosine by LC-MS; average where tested multiple times; read-out: AC50
row,AC50 [µM],Molecule
1,> 5,O=C(CCc1nnc(C(F)F)o1)N1CCc2[nH]cnc2C1c1nc2ccccc2s1 (stereo not drawn)
2,> 5,O=C(Cc1coc(C(F)F)n1)N1CCc2[nH]cnc2C1c1nc2ccccc2s1 (stereo not drawn)
3,1 to 5,Cc1nnc(CCC(=O)N2CCc3nc[nH]c3C2c2nc3ccc(F)cc3s2)s1 (stereo not drawn)
4,> 5,"Cc1noc(C(=O)N2CCc3[nH]cnc3[C@@H]2c2nc3ccccc3s2)n1 (single isomer, unassigned)"
5,> 5,Cn1ncc(C(=O)N2CCc3[nH]cnc3C2c2nc3ccccc3s2)n1 (stereo not drawn)
6,> 5,O=C(Cc1nc(C(F)(F)F)cs1)N1CCc2[nH]cnc2C1c1nc2ccc(F)cc2s1 (stereo not drawn)
7,> 5,Cc1cccc2sc(C3c4nc[nH]c4CCN3C(=O)c3cnn(C)c3Cl)nc12 (stereo not drawn)
8,1 to 5,"Cc1nnc(N2CCc3[nH]cnc3[C@H]2c2nc3ccccc3[nH]2)o1 (single isomer, unassigned)"
9,1 to 5,"O=C(CCc1nc2ccccc2s1)N1CCc2[nH]cnc2[C@H]1c1nc2ccccc2[nH]1 [(S)-1-(4-(1H-benzo[d]imidazol-2-yl)-1,4,6,7-tetrahydro-5H-imidazo[4,5-c]pyridin-5-yl)-3-(benzo[d]thiazol-2-yl)propan-1-one]"
10,> 5,"O=C(Cc1cnco1)N1CCc2[nH]cnc2[C@H]1c1nc2ccccc2[nH]1 [(S)-1-(4-(1H-benzo[d]imidazol-2-yl)-6,7-dihydro-1H-imidazo[4,5-c]pyridin-5(4H)-yl)-2-(oxazol-5-yl)ethanone]"
11,> 5,O=C(c1cnn2cc(Cl)ccc12)N1CCc2nc[nH]c2C1c1nc2cc(F)ccc2s1 (stereo not drawn)
12,1 to 5,Cc1nc(C(C)(C)O)oc1C(=O)N1CC(C)c2[nH]cnc2C1c1nc2c(F)cccc2s1 (stereo not drawn)
13,1 to 5,Cn1nc(C2CC2)nc1C(=O)N1CCc2[nH]cnc2C1c1nc2c(F)cccc2s1 (stereo not drawn)
14,> 5,O=C(c1nccs1)N1CCc2nc[nH]c2C1c1nc2ccc(F)cc2s1 (stereo not drawn)
15,1 to 5,Cn1nc(C(C)(C)O)nc1C(=O)N1CCc2[nH]cnc2C1c1nc2ccccc2s1 (stereo not drawn)
